Experimental data reported in patent publication US20070149483A1, “Methods and compounds for modulating triglyceride and vldl secretion” (priority 2003, published 2007).
One block for each compound: values may come before it.

How the values were obtained:
[1] = test system: McA-RH7777 cells stably expressing human apoB100; details: Tran et al., 2002, cited from earlier work
[2] = test system: McA-RH7777 cells stably expressing human apoB100; assay: Immunofluorescent localization of apoB and Map1LC3; format: cell-based, rat; details: 0.4 mM, 4 h, in comparison to controls
Experimental: Cells were permeabilized with 1% Triton X-100 in blocking buffer (10% FBS in PBS) for 30 min and probed with primary antibodies, i.e., monoclonal antibody 1D1 (1:1000) for human apoB and polyclonal antibody against rat Map1LC3 (1:200) for 1 h. Cells were then incubated with a mixture of secondary antibodies (1:200), i.e., of goat anti-mouse IgG conjugated with Alexa Fluor™488 (green) and goat anti-rabbit IgG conjugated with Alexa Fluor™594 (red) for 1 h. The coverslips were mounted onto glass slides using SlowFade AntiFade kits (Molecular Probes) and the images were captured by an MRC-1024 laser scanning confocal imaging system. […] The secondary antibody for apoB was conjugated with Alexa Fluor™488 (green), and that for Map1LC3 was conjugated with Alexa Fluor™594 (red).

McA-RH777 cells = details: oleate-treated cells; cited from earlier work
[3] = test system: McA-RH7777 cells stably expressing human apoB100; assay: Pulse-chase with subcellular fractionation: membrane-associated apoB100 trafficking; format: cell-based, rat; details: 20 min pulse
Experimental: The cells were then incubated with chase medium for 15, 30 and 45 min. At the end of each chase time, the medium was collected and subjected to cumulative rate flotation centrifugation (Wang et al., 1999) to resolve apoB100-VLDL1 (Sf>100) and apoB100-VLDL2 (Sf 20-100) from other lipoproteins (i.e. IDL, LDL and HDL). The ^35S-apoB100 in each fraction was recovered by immunoprecipitation. Also, at the end of each chase time, the radiolabeled cells were harvested in 2 ml of ice-cold homogenization buffer (10 mM Tris-HCl, pH 7.4, 250 mM sucrose, 5 mM EDTA, and serine/cysteine protease inhibitor mixture), mixed with two 100-mm dishes of unlabeled cells, homogenized by passing ten times through a ball-bearing homogenizer, and subjected to subcellular fractionation and carbonate-treatment as described below. […]
Analysis of ApoB100 Associated with Membranes and Lumenal Contents of Microsomes—Lumenal contents were separated from membranes by sodium carbonate treatment followed by centrifugation (Tran et al., 2002). The ^35S-labelled apoB100 proteins associated with the membrane and lumen were recovered by immunoprecipitation and analyzed by SDS-PAGE/fluorography as previously described (Tran et al., 2002). […]

[4] = test system: McA-RH7777 cells stably expressing human apoB100; assay: Transmission electron microscopy morphometry of lipid/lipoprotein particles in Golgi and GAV; format: cell-based, rat; details: for relative occurrence of particle type in the GAV: n=221; for relative occurrence of particle type in trans-Golgi saccules 4-6+TGN/secretory vesicles: n=284
Experimental: The samples were processed for transmission electron microscopy as previously described (Tran et al., 2002). Single and serial thin sections (silver-gold interference colors) were visualized in a Hitachi H-7000 transmission electron microscope, and captured at a range of negative magnifications (8,000-120,000 times). Panoramic tiling was used to capture large fields. The 3D model was prepared from Golgi fields from 7 consecutive serial images (positive magnification=70,000 times), by the method previously described (Thorne-Tjomsland et al., 1998, Anat. Rec. 250, 381-396), with the following modifications. The serial fields were scanned into Adobe Photoshop 5.5 of an Imac 700 MHz G4 computer. Alignment of consecutive sections by fiducial markers was carried out prior to object-contouring and -separation. Concatenation and volume rendering were done in Synu on an SGI-OS 2, and image capture was with Photoshop on a Macintosh platform. The diameter of electron-dense particles, which represent a combination of lipoprotein particles and lipid droplets, were measured in 40 randomly selected Golgi regions from EPA-treated cells. Negative magnification was 40,000 times and positives were further magnified three times. Measurements were from positives, using a digital caliper [technical specifications in required range (0-150 mm on positive): max resolution=0.01 mm; accuracy=0.02 mm; repeatability=0.01 mm]. The precision in our system was tested by measuring the diameters of each of two electron-dense particles (20 nm and 40 nm diameter) 40 times; SD for the average converted measurements was <1 nm. Criteria for selecting Golgi, establishing cis-trans polarity, and measuring lipid/lipoprotein particles were as described (Tran et al., 2002). Lipid/lipoprotein particles were classified as membrane-associated if directly apposed to the lumenal Golgi leaflet or with a membrane diverging from this, otherwise as lumenal.

[5] = test system: McA-RH7777 cells expressing human apoB100; assay: Pulse-chase of [35S]apoB100 with rate flotation of conditioned medium and microsomal lumen; format: cell-based, rat; details: 30 min pulse, end of 1-h chase
Experimental: Cell Culture and Fatty Acid Treatments—Transfected McA-RH7777 cells stably expressing human apoB100 (McLeod et al., 1994, J. Biol. Chem. 269, 2852-2862) were cultured in Dulbecco's modified Eagle's medium (DMEM) containing 10% fetal bovine serum (FBS), 10% horse serum and 200 μg/ml G418. Routinely, the cells were incubated with 0.4 mM fatty acids for 16-18 h in the presence of 20% FBS prior to experiments.

SMILES: CCCCCCCC/C=C\CCCCCCCC(=O)O [Oleate, oleic acid]
size of lipoprotein particles detected in oleate-treated cells [1]: 40 nm | average diameters of lipoproteins in Golgi saccules 1-6 ([1]; oleate-treated McArdle cells): 40±17 nm | autophagy (penetration of Map1LC3 staining into the apoB100-rich perinuclear area, partial co-localization with apoB100) [2]: induced autophagy | share of total secreted TG carried by VLDL particles (McA-RH777 cells): > 80% | share of total secreted apoB100 carried by VLDL particles (McA-RH777 cells): < 10% | rate at which the membrane-associated [^35S]-apoB100 exited the ER ([3]; chase 0, 15, 30 and 45 min): −0.59±0.17 % of total/min | rate at which the membrane-associated [^35S]-apoB100 appeared in the distal Golgi ([3]; chase 0-45 min): 0.39±0.11 % of total/min

increase of [^35S]-apoB100 in fractions of high density (IDL and LDL) in the microsomal lumen ([5]; vs oleate): six-fold
SMILES: CC/C=C\C/C=C\C/C=C\C/C=C\C/C=C\CCCC(=O)O [EPA, eicosapentaenoic acid]
average size of Type I particles in the cis-most Golgi saccule ([4]; EPA-treated cells): 100 nm | average size of Type V particles ([4]; EPA-treated cells): 54.5 nm | sizes of Type V particles in the Golgi ([4]; EPA-treated cells): 25-75 nm | Percent membrane association of particles ([4]; Type I, GAV): 33% | Percent membrane association of particles ([4]; Type I, Golgi saccule 1): 100% | Percent membrane association of particles ([4]; Type I, Golgi saccule 2): 84% | Percent membrane association of particles ([4]; Type I, Golgi saccule 3): 80% | Percent membrane association of particles ([4]; Type I, Golgi saccules 4-6): 73% | Percent membrane association of particles ([4]; Type I, TGN and secretory): 56% | relative occurrence of particle type in the GAV ([4]; Type I): 12% | relative occurrence of particle type in trans-Golgi saccules 4-6+TGN/secretory vesicles ([4]; Type I): 12% | Percent membrane association of particles ([4]; Type II, GAV): 25% | Percent membrane association of particles ([4]; Type II, Golgi saccule 1): 100% | Percent membrane association of particles ([4]; Type II, Golgi saccule 2): 83% | Percent membrane association of particles ([4]; Type II, Golgi saccule 3): 75% | relative occurrence of particle type in the GAV ([4]; Type II): 2% | relative occurrence of particle type in trans-Golgi saccules 4-6+TGN/secretory vesicles ([4]; Type II): 4% | Percent membrane association of particles ([4]; Type III, GAV): 46% | Percent membrane association of particles ([4]; Type III, Golgi saccule 1): 100% | Percent membrane association of particles ([4]; Type III, Golgi saccule 2): 83% | Percent membrane association of particles ([4]; Type III, Golgi saccule 3): 83% | Percent membrane association of particles ([4]; Type III, Golgi saccules 4-6): 82% | Percent membrane association of particles ([4]; Type III, TGN and secretory): 73% | relative occurrence of particle type in the GAV ([4]; Type III): 11% | relative occurrence of particle type in trans-Golgi saccules 4-6+TGN/secretory vesicles ([4]; Type III): 13% | Percent membrane association of particles ([4]; Type IV, GAV): 45% | Percent membrane association of particles ([4]; Type IV, Golgi saccules 4-6): 50% | Percent membrane association of particles ([4]; Type IV, TGN and secretory): 20% | Percent membrane association of particles ([4]; Type IV, combined Golgi saccules 1-3): 67% | relative occurrence of particle type in the GAV ([4]; Type IV): 5% | relative occurrence of particle type in trans-Golgi saccules 4-6+TGN/secretory vesicles ([4]; Type IV): 5% | Percent membrane association of particles ([4]; Type V, GAV): 42% | Percent membrane association of particles ([4]; Type V, Golgi saccule 1): 96% | Percent membrane association of particles ([4]; Type V, Golgi saccule 2): 83% | Percent membrane association of particles ([4]; Type V, Golgi saccule 3): 66% | Percent membrane association of particles ([4]; Type V, Golgi saccules 4-6): 64% | Percent membrane association of particles ([4]; Type V, TGN and secretory): 66% | relative occurrence of particle type in the GAV ([4]; Type V): 70% | relative occurrence of particle type in trans-Golgi saccules 4-6+TGN/secretory vesicles ([4]; Type V): 66% | decrease of [^35S]-apoB100 in VLDL (VLDL1 and VLDL2) in the media, as compared to oleate-treatment ([5]; 16 h pretreatment): 50%
